Test results reported in patent US5981574A, “Phenanthrofuran derivatives” (Phytera, Inc., priority 1998, dated 1999).

System: Human umbilical-vein endothelial cells (HUVEC)
Assay: Anti-angiogenic activity in Tube Formation Assay (collagen tube, 1st Assay and 2nd Assay)
Format: cell-based
Conditions: for inhibition at 1 µg/mL / inhibition at 10 µg/mL / inhibition at 30 µg/mL / inhibition at 1 µM / inhibition at 10 µM: Homo sapiens, HUVEC; for inhibition at 10 µg/mL: 10 μg/ml; for inhibition at 30 µg/mL: 30 μg/ml; for inhibition at 1 µM / inhibition at 10 µM: positive control
Method: Anti-angiogenic activity: collagen tube
Human umbilical-vein endothelial cells (HUVEC; Kurabo Industries, Ltd., Osaka, Japan) were cultured with M-199 medium (Gibco, Gaithersburg, Md.) with […], bFGF (15 ng/mL; PeproTech EC, Ltd., Princeton, N.J.) and epidermal growth factor (EGF) (15 ng/mL; Upstate Biotechnology Inc., Lake Placid, N.Y.) until they become confluent. All experiments were performed using cells that were passaged at least five times. Eight volumes of type-I collagen solution (Nitta Gelatin Inc., Osaka, Japan)were mixed with one volume of 10X M-199 medium and one volume of reconstruction buffer (0.5 N NaOH, 200 mM HEPES and 260 mM NaHCO3).
Collagen gel (300 μL/well) was placed in 24-well culture plates (NUNC) and incubated for 1.5 hours. HUVEC (1.4×10^5 /0.5 mL) were seeded in the collagen-coated plates and cultured for 2 hours at 37° C. Fifty microliters of sample were added. The collagen gel was replaced (300 μL/well), and the mixture was cultured for 1.5 hours. Three hundred fifty microliters of M-199 medium with […], 30 ng/mL basic fibroblast growth factor (bFGF) were added, and the mixture was cultured for 20 hours. One field per well was photographed with a phase-contrast microscope, and the length of the tube structures were measured on a Macintosh computer using the public domain NIH Image program (see Table 1 for results). Erbstatin was used as a positive control for inhibition of angiogenesis.

[1] = 1st Assay, 1 μg/ml, n.e.: no effect, over 100% = more inhibition than in control cultures without bFGF
[2] = 1st Assay, over 100% = more inhibition than in control cultures without bFGF
[3] = 2nd Assay, over 100% = more inhibition than in control cultures without bFGF

Compound	inhibition at 1 µg/mL [1] [%]	inhibition at 10 µg/mL [2] [%]	inhibition at 30 µg/mL [2] [%]	inhibition at 1 µg/mL (2nd Assay, 1 μg/ml, over 100% = more inhibition than in control cultures without bFGF) [%]	inhibition at 10 µg/mL [3] [%]	inhibition at 30 µg/mL [3] [%]	% of inhibition (tube formation) [1]	inhibition at 1 µM (1st Assay) [%]	inhibition at 10 µM (1st Assay) [%]	inhibition at 1 µM (2nd Assay) [%]	inhibition at 10 µM (2nd Assay) [%]
CC1=C(C)C2=CC(=O)c3c(c(O)c4oc(C)cc4c3O)C2(C)CC1 (stereo not drawn) [Formula I-A fraction]	115	119	119	108	108	107	–	–	–	–	–
CC1=C(C)C2=CC(=O)c3c(c(O)c4occ(C)c4c3O)C2(C)CC1 (stereo not drawn) [Ajuforrestine A fraction, 1,11b-dihydro-7,11-dihydroxy-3,4,8,11b-tetramethyl-phenanthro[3,2-b]furan-6(2H)-one]	–	99.6	102	–	98	109	n.e.	–	–	–	–
O=CN/C=C/c1cc(O)ccc1O [Erbstatin, reference compound]	–	–	–	–	–	–	–	7.6	118	6.7	108
